The assay deals with T1, F508delCFTR (Homo sapiens, UniProt P13569, DEL508-508).
T1 construct: expressed in transfected cells; host or cells: CFBE41o- human lung-derived epithelial cells (CFBE4lo-F508delCFTR-HRP), doxycycline-inducible
The assay can be described thus: Cell Surface Expression-Horse Radish Peroxidase (CSE-HRP) Assay.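 As to Maximum % activity (with co-corrector): co-corrector and positive control are both the same reference corrector at 2 µM.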 Particulars: for Maximum % activity (with co-corrector) / Emax / Maximum % activity (without co-corrector): maximum at any tested concentration, normalized to on-plate positive control; for Emax: read-out: Maximum % activity (without co-corrector). Type of assay: cell-based.

[1] abbreviates: CSE-HRP, test compound without co-corrector, read-out: EC50 (without co-corrector).
[2] abbreviates: CSE-HRP, with co-corrector (2 μM of 3-[(2R,4R)-4-({[1-(2,2-difluoro-1,3-benzodioxol-5-yl)cyclopropyl]carbonyl}amino)-7-methoxy-3,4-dihydro-2H-chromen-2-yl]benzoic acid), read-out: EC50 (with co-corrector).
[3] abbreviates: CSE-HRP, with co-corrector (2 μM).
[4] abbreviates: test compound without co-corrector.
[5] abbreviates: test compound without co-corrector, read-out: EC50 (without co-corrector).
Where [6] appears, read: with co-corrector (2 μM of 3-[(2R,4R)-4-({[1-(2,2-difluoro-1,3-benzodioxol-5-yl)cyclopropyl]carbonyl}amino)-7-methoxy-3,4-dihydro-2H-chromen-2-yl]benzoic acid).
Setting [7] is: with co-corrector (2 μM of 3-[(2R,4R)-4-({[1-(2,2-difluoro-1,3-benzodioxol-5-yl)cyclopropyl]carbonyl}amino)-7-methoxy-3,4-dihydro-2H-chromen-2-yl]benzoic acid), read-out: EC50 (with co-corrector).

Read-outs that look alike come from different tables or passages of the source.

T1 sequence (P13569 with tags, fused parts or gaps DEL508-508): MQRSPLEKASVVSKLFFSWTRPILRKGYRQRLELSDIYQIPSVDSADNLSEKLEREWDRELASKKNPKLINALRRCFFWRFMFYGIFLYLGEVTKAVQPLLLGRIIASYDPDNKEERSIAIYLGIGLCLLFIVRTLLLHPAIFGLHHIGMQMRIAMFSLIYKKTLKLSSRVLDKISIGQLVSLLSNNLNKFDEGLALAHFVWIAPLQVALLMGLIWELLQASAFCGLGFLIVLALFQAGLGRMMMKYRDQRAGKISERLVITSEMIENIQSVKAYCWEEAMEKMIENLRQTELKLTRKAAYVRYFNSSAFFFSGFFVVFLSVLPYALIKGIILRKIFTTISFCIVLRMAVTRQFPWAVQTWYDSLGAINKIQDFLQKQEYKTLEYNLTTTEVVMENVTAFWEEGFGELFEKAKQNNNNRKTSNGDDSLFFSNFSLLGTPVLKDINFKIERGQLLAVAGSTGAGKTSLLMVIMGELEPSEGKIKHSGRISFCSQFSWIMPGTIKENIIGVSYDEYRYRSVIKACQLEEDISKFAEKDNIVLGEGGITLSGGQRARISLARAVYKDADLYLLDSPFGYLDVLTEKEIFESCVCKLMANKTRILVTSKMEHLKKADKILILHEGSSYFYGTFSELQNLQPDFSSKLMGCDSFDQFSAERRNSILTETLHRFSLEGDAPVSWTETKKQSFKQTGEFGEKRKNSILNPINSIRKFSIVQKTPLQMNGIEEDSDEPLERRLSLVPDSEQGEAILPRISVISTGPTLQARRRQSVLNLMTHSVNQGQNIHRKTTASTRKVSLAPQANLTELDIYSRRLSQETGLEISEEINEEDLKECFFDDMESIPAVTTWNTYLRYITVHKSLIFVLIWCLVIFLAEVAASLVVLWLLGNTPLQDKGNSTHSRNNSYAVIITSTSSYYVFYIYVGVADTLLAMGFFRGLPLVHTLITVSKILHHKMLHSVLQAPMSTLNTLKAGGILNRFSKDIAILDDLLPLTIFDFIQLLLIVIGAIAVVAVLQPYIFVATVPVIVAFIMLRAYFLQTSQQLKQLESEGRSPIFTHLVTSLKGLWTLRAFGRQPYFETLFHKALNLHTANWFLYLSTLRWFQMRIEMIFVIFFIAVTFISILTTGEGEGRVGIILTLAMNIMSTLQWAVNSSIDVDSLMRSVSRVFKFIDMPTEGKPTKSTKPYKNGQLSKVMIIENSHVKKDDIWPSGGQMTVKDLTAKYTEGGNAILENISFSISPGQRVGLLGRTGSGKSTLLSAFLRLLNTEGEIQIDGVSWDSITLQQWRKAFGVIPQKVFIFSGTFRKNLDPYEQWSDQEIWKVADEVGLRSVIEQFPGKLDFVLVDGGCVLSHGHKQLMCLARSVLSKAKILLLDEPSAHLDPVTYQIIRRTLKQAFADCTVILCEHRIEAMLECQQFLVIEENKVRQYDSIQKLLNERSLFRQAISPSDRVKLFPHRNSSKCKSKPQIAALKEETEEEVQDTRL

Consider `COc1ccc(C(C)(C)C)cc1CN[C@H]1[C@H](C(C)(C)C)[C@@H](C(=O)O)N(C(=O)C(OC)C(C)(C)C)[C@H]1c1ccccc1` (some centres unmarked) [II-298], for which the concentration giving a half-maximal response (EC50) lay in the range of 1 to 10 µM under setting [1] and 1 to 10 µM under setting [2]. Moreover, under setting [3], the “Maximum % activity (with co-corrector)” value is on record as “+++ (≥350)”. For the same compound, the Emax (CSE-HRP, without co-corrector) was 100 to 200%.
Regarding `COc1ccc(C(C)(C)C)cc1CN[C@H]1[C@H](C(C)(C)C)[C@@H](C(=O)O)N(C(=O)C2CC=CC2)[C@H]1c1ccccc1` [II-321], the Emax under setting [4] was greater than 200%. Further, the EC50 by setting is: under setting [5], 1 to 10 µM; under setting [7], less than 1 µM. Further, the “Maximum % activity (with co-corrector)” value under setting [6] is “+++ (≥350)”.
`CC(C)(C)c1ccc(CN[C@H]2[C@H](C(C)(C)C)[C@@H](C(=O)O)N(C(=O)[C@@H]3CCCC(F)(F)C3)[C@H]2c2ccccc2)c(Cl)n1` [Example I-247]: the concentration for a half-maximal effect (EC50) under setting [5] lay within 1 to 10 µM and the EC50 under setting [7] lay within 1 to 10 µM. Also, the “Maximum % activity (with co-corrector)” value (with co-corrector (2 μM)) is recorded as “+++ (≥350)”. Where the note is “without co-corrector”, the Emax is less than 100%.
As to `COc1ncc(C(F)(F)F)cc1CN[C@H]1[C@H](C(C)(C)C)[C@@H](C(=O)O)N(C(=O)[C@@H]2CCCO2)[C@H]1c1ccccc1C(C)C` [Example 95, (2S,3S,4S,5S)-3-tert-butyl-4-({[2-methoxy-5-(trifluoromethyl)pyridin-3-yl]methyl}amino)-1-[(2S)-oxolane-2-carbonyl]-5-[2-(propan-2-yl)phenyl]pyrrolidine-2-carboxylic acid], the EC50 is less than 1 µM under setting [5] and less than 1 µM under setting [7]. In addition, where the note is “with co-corrector (2 μM)”, the “Maximum % activity (with co-corrector)” value is reported as “+++ (≥350)”. Moreover, the Emax (without co-corrector) is greater than 200%.
As to `COc1nc(C(C)(C)C)ccc1CN[C@H]1[C@H](C(C)(C)C)[C@@H](C(=O)O)N(C(=O)OC(C)C)[C@H]1c1cccnc1OC(C)C` [II-557], the Emax under setting [4] lay within 100 to 200%. Besides, the EC50 under setting [5] was in the range of 1 to 10 µM and the EC50 under setting [7] was less than 1 µM. Further, under setting [6], the “Maximum % activity (with co-corrector)” value is given as “+++ (≥350)”.
As to `COc1ccc(C(C)(C)C)cc1CN[C@H]1[C@H](C(C)(C)C)[C@@H](C(=O)O)N(C(=O)[C@@H]2OCC[C@@H]2C)[C@H]1c1ccccc1` (relative stereo) [II-268], the EC50 lay within 1 to 10 µM under setting [1] and 1 to 10 µM under setting [2]. In addition, under setting [3], the “Maximum % activity (with co-corrector)” value is recorded as “+++ (≥350)”. For the same compound, the Emax (CSE-HRP, without co-corrector) was greater than 200%.
Take `COc1ccc(C(C)(C)C)cc1CN[C@H]1[C@H](C(C)(C)C)[C@@H](C(=O)O)N(C(=O)C2OC[C@@H]3CCC[C@H]23)[C@H]1c1ccccc1` (relative stereo) [Example I-107]: the concentration giving a half-maximal response (EC50) reads like this: under setting [5], 1 to 10 µM; under setting [7], 1 to 10 µM. Under “with co-corrector (2 μM)”, the “Maximum % activity (with co-corrector)” value is reported as “+++ (≥350)”. Moreover, the Emax (without co-corrector) is greater than 200%.
Regarding `COc1ccc(C(C)(C)C)cc1CN[C@H]1[C@H](C(C)(C)C)[C@@H](C(=O)O)N(C(=O)C2CCCC(F)(F)C2)[C@H]1c1cccnc1N(C)C` (single isomer, unassigned) [Example 44, (2S,3S,4S,5S)-3-tert-butyl-4-{[(5-tert-butyl-2-methoxyphenyl)methyl]amino}-1-[(1S*)-3,3-difluorocyclohexane-1-carbonyl]-5-[2-(dimethylamino)pyridin-3-yl]pyrrolidine-2-carboxylic acid], the EC50 was 1 to 10 µM under setting [5] and less than 1 µM under setting [7]. Moreover, under “with co-corrector (2 μM)”, the “Maximum % activity (with co-corrector)” value is “+++ (≥350)”. The “Maximum % activity (without co-corrector)” value (without co-corrector) is on record as “+++ (≥200)”.
Consider `COc1ncc(C(F)(F)F)cc1CN[C@@H]1[C@@H](C(C)(C)OC)[C@H](C(=O)O)N(C(=O)C2CCCCC2)[C@@H]1c1ccccc1` (racemic) [III-116], for which the Emax under setting [4] was 100 to 200%. Besides, the EC50 is, setting by setting: under setting [5], 1 to 10 µM; under setting [7], less than 1 µM. Besides, for the setting “with co-corrector (2 μM)”, the “Maximum % activity (with co-corrector)” value is “+++ (≥350)”.
`CC(C)c1ccccc1CN[C@H]1[C@H](C(C)(C)C)[C@@H](C(=O)O)N(C(=O)C2CCCCC2)[C@H]1c1ccccc1` [II-166]: the concentration giving a half-maximal response (EC50) is, setting by setting: under setting [1], less than 1 µM; under setting [2], less than 1 µM. Also, the “Maximum % activity (with co-corrector)” value under setting [3] is listed as “+++ (≥350)”. Besides, the Emax (CSE-HRP, without co-corrector) lay in the range of 100 to 200%.
As to `COc1ccc(C(C)(C)C)cc1CN[C@H]1[C@H](C(C)(C)C)[C@@H](C(=O)O)N(C(=O)c2cn(C)cc(C)c2=O)[C@H]1c1ccccc1` [III-176], under setting [4], the Emax was less than 100%. Besides, the EC50 under setting [5] is greater than 10 µM and the EC50 under setting [7] is greater than 10 µM. Moreover, for the setting “with co-corrector (2 μM)”, the “Maximum % activity (with co-corrector)” value is reported as “+ (<150)”.
As to `CC(C)(C)[C@H]1[C@H](NC2CCOc3ccc(Cl)cc32)[C@H](c2ccccc2)N(C(=O)C2CCCCC2)[C@@H]1C(=O)O` (some centres unmarked) [II-167], the concentration for a half-maximal effect (EC50) reads like this: under setting [1], 1 to 10 µM; under setting [2], 1 to 10 µM. Also, the “Maximum % activity (with co-corrector)” value under setting [3] was “++ (≥150 and <350)”. Also, the Emax (CSE-HRP, without co-corrector) is less than 100%.
Consider `COc1ccc(SC(F)(F)F)cc1CN[C@H]1[C@H](C(C)(C)C)[C@@H](C(=O)O)N(C(=O)OC(C)C)[C@H]1c1cccnc1N(C)C` [III-225], for which the Emax under setting [4] was greater than 200%. The EC50 runs as follows: under setting [5], 1 to 10 µM; under setting [7], 1 to 10 µM. For the setting “with co-corrector (2 μM)”, the “Maximum % activity (with co-corrector)” value is listed as “+++ (≥350)”.
Regarding `COc1nc(C(C)(C)C)ccc1CN[C@H]1[C@H](C(C)(C)C)[C@@H](C(=O)O)N(C(=O)[C@H](C)c2ccccc2)[C@H]1c1ccccc1` [Example I-182], the half-maximal effective concentration (EC50) runs as follows: under setting [5], 1 to 10 µM; under setting [7], 1 to 10 µM. Under “with co-corrector (2 μM)”, the “Maximum % activity (with co-corrector)” value is “+++ (≥350)”. Moreover, the Emax (without co-corrector) is 100 to 200%.
With `COc1ccc(C2(C(F)(F)F)CC2)cc1CN[C@H]1[C@H](C(C)(C)C)[C@@H](C(=O)O)N(C(=O)C2Cc3ccccc3O2)[C@H]1c1cccnc1N(C)C` (single isomer, unassigned) [Example 37, (2S,3S,4S,5S)-3-tert-butyl-1-[(2R*)-2,3-dihydro-1-benzofuran-2-carbonyl]-5-[2-(dimethylamino)pyridin-3-yl]-4-[({2-methoxy-5-[1-(trifluoromethyl)cyclopropyl]phenyl}methyl)amino]pyrrolidine-2-carboxylic acid], the EC50 is, setting by setting: under setting [5], less than 1 µM; under setting [7], less than 1 µM. Further, under “with co-corrector (2 μM), 2 µM”, the “Maximum % activity (with co-corrector)” value was “++ (≥150 and <350)”. For the setting “without co-corrector”, the “Maximum % activity (without co-corrector)” value is recorded as “+ (<100)”.
As for `COc1ccc(C(F)(F)F)cc1CN[C@@H]1[C@@H](C(C)(C)C)[C@H](C(=O)O)N(C(=O)OC(C)C)[C@@H]1c1cccnc1N(C)C` (racemic) [Example I-29], the EC50 under setting [5] was in the range of 1 to 10 µM and the 50% effective concentration (EC50) under setting [7] was 1 to 10 µM. In addition, for the setting “with co-corrector (2 μM)”, the “Maximum % activity (with co-corrector)” value was “+++ (≥350)”. In addition, the Emax (without co-corrector) is greater than 200%.
For the compound `COc1ccc(C(F)(F)F)cc1CN[C@@H]1[C@@H](C(C)(C)C)[C@H](C(=O)O)N(C(=O)C2C3COCC32)[C@@H]1c1ccccc1N(C)C` (mixture of isomers) [III-71], the Emax under setting [4] is greater than 200%. Also, the EC50 is 1 to 10 µM under setting [5] and 1 to 10 µM under setting [7]. Besides, the “Maximum % activity (with co-corrector)” value under setting [6] was “+++ (≥350)”.
For the compound `COc1ccc(OC(F)(F)F)cc1CN[C@H]1[C@H](C(C)(C)C)[C@@H](C(=O)O)N(C(=O)OC(C)C)[C@H]1c1cccnc1N(C)C` [II-552], the Emax under setting [4] was greater than 200%. Moreover, the EC50 was in the range of 1 to 10 µM under setting [5] and 1 to 10 µM under setting [7]. Besides, the “Maximum % activity (with co-corrector)” value under setting [6] is recorded as “+++ (≥350)”.
Regarding `COc1ccc(C(C)(C)C)cc1CN[C@H]1[C@H](C(C)(C)C)[C@@H](C(=O)O)N(C(=O)C2CC3CCC(C2)O3)[C@H]1c1ccccc1` (some centres unmarked) [Example I-172], the EC50 was in the range of 1 to 10 µM under setting [5] and 1 to 10 µM under setting [7]. Further, the “Maximum % activity (with co-corrector)” value (with co-corrector (2 μM)) is on record as “+++ (≥350)”. Besides, where the note is “without co-corrector”, the Emax was greater than 200%.
Consider `COc1ncc(C2CCC2)cc1CN[C@H]1[C@H](C(C)(C)C)[C@@H](C(=O)O)N(C(=O)C2CCCCC2)[C@H]1c1ccccc1C` [Example 92, (2S,3S,4S,5S)-3-tert-butyl-4-{[(5-cyclobutyl-2-methoxypyridin-3-yl)methyl]amino}-1-(cyclohexanecarbonyl)-5-(2-methylphenyl)pyrrolidine-2-carboxylic acid], for which the EC50 was less than 1 µM under setting [5] and less than 1 µM under setting [7]. Also, where the note is “with co-corrector (2 μM)”, the “Maximum % activity (with co-corrector)” value is listed as “+++ (≥350)”. For the setting “without co-corrector”, the Emax is greater than 200%.
As to `COc1ccc(C(C)(C)C)cc1CN[C@H]1[C@H](C(C)(C)C)[C@@H](C(=O)O)N(C(=O)C2CCC(C(F)(F)F)CC2)[C@H]1c1ccccc1` (some centres unmarked) [II-374], under setting [4], the Emax lay in the range of 100 to 200%. Further, the half-maximal effective concentration (EC50) under setting [5] lay in the range of 1 to 10 µM and the EC50 under setting [7] was less than 1 µM. Further, the “Maximum % activity (with co-corrector)” value under setting [6] was “+++ (≥350)”.
In the same order, the values of `COc1nc2ccccc2cc1CN[C@H]1[C@H](C(C)(C)C)[C@@H](C(=O)O)N(C(=O)C2CCOCC2)[C@H]1c1ccccc1C(C)C` [II-598] are greater than 200%, 1 to 10 µM, less than 1 µM and “+++ (≥350)”.
As to `COc1ccc(S(F)(F)(F)(F)F)cc1CN[C@H]1[C@H](C(C)(C)C)[C@@H](C(=O)O)N(C(=O)OC(C)C)[C@H]1c1cccnc1N(C)C` [Example I-245], the 50% effective concentration (EC50) was 1 to 10 µM under setting [5] and 1 to 10 µM under setting [7]. Further, the “Maximum % activity (with co-corrector)” value (with co-corrector (2 μM)) is “+++ (≥350)”. For the same compound, the Emax (without co-corrector) is greater than 200%.

Usually EC50 stands for the midpoint of the concentration-response curve.

The values above are taken from patent US20180099931A1 (AbbVie S.à.r.l., priority 2016, published 2018).
